Among the test systems are 786-0 renal; A498 renal; EKVX NSCLC; HCT-116 colon; HS 578T breast; K-562 leukemia; KM12 colon; OVCAR-5 ovarian; SK-MEL-2 melanoma; SNB-75 CNS.
Common to all, as to test: inhibition of tumour cell growth, NCI panel, 48 h

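96-well plates; 48 h exposure; 5 concentrations. Endpoints by linear interpolation between flanking doses. Not reached: highest tested concentration assigned. Abbreviation: GI50, concentration required for 50% inhibition of growth. TGI: total growth inhibition.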

Our source for the GI50 and TGI values is PubChem BioAssay (NCI).

In the case of `COc1cc(C2C3=C(COC3=O)Nc3cc4c(cc32)OCO4)cc2c1OCO2` (centres undefined), the GI50 in the assay on 786-0 renal is 0.138 µM; in the assay with A498 renal, 0.0276 µM; in the assay with HCT-116 colon, 0.0905 µM; in the assay with HS 578T breast, 0.0414 µM; with K-562 leukemia, 0.034 µM; with KM12 colon it was 0.0355 µM. Also, the GI50 in the assay on OVCAR-5 ovarian was 1.09 µM; with SK-MEL-2 melanoma, 0.113 µM; with SNB-75 CNS, 0.0337 µM. Further, the TGI in the assay with 786-0 renal was over 100 µM; with A498 renal it was 0.12 µM; with EKVX NSCLC, over 100 µM; with HCT-116 colon, 3.49 µM; in the assay on HS 578T breast, over 100 µM; with K-562 leukemia, over 100 µM. For the same molecule, the TGI is 1.92 µM in the assay on KM12 colon, over 100 µM in the assay with OVCAR-5 ovarian, over 26 µM in the assay on SK-MEL-2 melanoma and 2.75 µM in the assay with SNB-75 CNS.

Turning to `Cn1c(C(C)(C)OC(=O)Oc2ccccc2)cnc1[N+](=O)[O-]`, the TGI in the assay on 786-0 renal, in the assay with A498 renal, with EKVX NSCLC, in the assay on HCT-116 colon, with HS 578T breast and in the assay with K-562 leukemia was over 100 µM in each case. Moreover, the TGI with KM12 colon, in the assay with OVCAR-5 ovarian, in the assay with SK-MEL-2 melanoma and in the assay on SNB-75 CNS was over 100 µM throughout.

In the case of `COc1cc2c(cc1O)C(c1cc(O)c(O)c(OC)c1)C(O)(C(=O)O)C(CO)C2O` (centres undefined), the TGI with 786-0 renal is 30.5 µM; in the assay on A498 renal, over 100 µM; in the assay with EKVX NSCLC, 36.9 µM; in the assay on HCT-116 colon, 42.7 µM; in the assay with HS 578T breast it was over 100 µM; in the assay with K-562 leukemia, over 100 µM. Moreover, the TGI in the assay with KM12 colon, in the assay with OVCAR-5 ovarian, in the assay with SK-MEL-2 melanoma and in the assay with SNB-75 CNS was over 100 µM in each case.

Regarding `CC(=O)c1ccc2c(c1)N(CCCN(C)C)c1ccccc1S2`, the GI50 with 786-0 renal was 12 µM; with A498 renal, 11.4 µM; in the assay on EKVX NSCLC, 13.1 µM; in the assay with HCT-116 colon it was 11.3 µM; in the assay on HS 578T breast, 11.6 µM; in the assay with K-562 leukemia, 15.9 µM. The GI50 is 15.7 µM in the assay on KM12 colon, 13.9 µM in the assay with OVCAR-5 ovarian, 18.1 µM with SK-MEL-2 melanoma and 1.99 µM in the assay on SNB-75 CNS. In addition, the TGI in the assay with 786-0 renal came out at 25 µM; with A498 renal, 25.1 µM; with EKVX NSCLC it was 30.9 µM; in the assay on HCT-116 colon, 23.7 µM; in the assay on HS 578T breast, 27.8 µM; in the assay with K-562 leukemia it was 83.7 µM. For the same molecule, the TGI in the assay on KM12 colon worked out at 29.6 µM; in the assay with OVCAR-5 ovarian, 27.9 µM; with SK-MEL-2 melanoma, 35.7 µM; with SNB-75 CNS, 16.4 µM.

On to `COc1ccc(C#CC2=C(c3cc(OC)c(OC)c(OC)c3)C(=O)OC2)cc1`, for which the GI50 with 786-0 renal is 4.94 µM; in the assay on A498 renal, 8.21 µM; with EKVX NSCLC, 13.7 µM; in the assay on HCT-116 colon, 1.8 µM; in the assay with HS 578T breast, 13.1 µM; with K-562 leukemia, 2.11 µM. For the same molecule, the GI50 in the assay on KM12 colon is 1.63 µM; with OVCAR-5 ovarian, over 50 µM; in the assay with SK-MEL-2 melanoma, 42.5 µM; with SNB-75 CNS, 1.33 µM. The TGI in the assay with 786-0 renal was over 50 µM; in the assay on A498 renal, 30.1 µM; in the assay on EKVX NSCLC, 41.8 µM; in the assay on HCT-116 colon, over 50 µM; with HS 578T breast, over 50 µM; in the assay with K-562 leukemia, over 50 µM. The TGI with KM12 colon was 27.4 µM; in the assay with OVCAR-5 ovarian it was over 50 µM; in the assay with SK-MEL-2 melanoma, over 50 µM; in the assay with SNB-75 CNS it was over 50 µM.
